Assay results as given in patent US20040057908A1, “Oral compositions and use thereof” (priority 2003, published 2004).
In brackets after ≈: the same amount, converted by molar mass. Like-named read-outs stand apart in the source and are kept apart here.

Experiments:
[1] = tested on: Streptococcus mutans GS-5; test: MIC and MBC, broth dilution; assay type: cell-based
Procedure: (§1) The minimum inhibitory concentration (MIC) and minimum bactericidal concentration (MBC) were determined for each test compound according to the National Committee for Clinical Laboratory Standards guidelines (Tentative standard M26-T, 1992; NCCLS Publication No. M7-A5, 2000) and Koo et al. (2000b). The broth microdilution and macrodilution methods (in TSB) were used for the antibacterial tests. The starting inoculum was 5×10^5 CFU/ml and the concentrations of test compounds ranged from 15.6 to 500 μM (two-fold dilutions). The MICs and MBCs were determined in quadruplicate in at least 3 different experiments.

[2] = tested on: Streptococcus mutans UA 159; test: MIC and MBC, broth dilution; assay type: cell-based
Procedure: as §1

[3] = tested on: Streptococcus sobrinus 6715; test: MIC and MBC, broth dilution; assay type: cell-based; details: Streptococcus sobrinus 6715
Procedure: as §1

[4] = tested on: Mutans Streptococci Strains; test: MIC and MBC, broth dilution, all strains stated together; assay type: cell-based, S. mutans (GS-5 and UA159) and S. sobrinus 6715
Procedure: as §1

[5] = molecular target: T1, GTF B (Streptococcus mutans serotype c, UniProt P08987); test: GTF activity in solution, GTF B; assay type: biochemical; details: read-out: GTF B sol. % of Inhib.
T1 construct: made in house; host or cells: Streptococcus milleri KSB8 (culture supernatant)
Procedure: (§2) Glucosyltransferase activity was measured by the incorporation of [^14C-glucose] from labeled sucrose (NEN Research Products, Boston, Mass.) into glucans (Germaine et al., 1974; Venkitaraman et al., 1995). The GTF enzyme added to each sample for all assays was equivalent to the amount required to incorporate 1.0-1.5 μmol of glucose over the four hours reaction (1.0-1.5 units).
(§3) For solution assays, purified GTF B, C, D and Ss were mixed with a two-fold dilution series of the test compounds (concentration ranging from 125 to 500 μM) and incubated with [^14C-glucose]-sucrose substrate (0.2 μCi/ml) (200.0 mmol/l sucrose, 40 μmol/l dextran 9000, 0.02% sodium azide in adsorption buffer—50 mM KCl, 1.0 mM KPO4, 1.0 mM CaCl2, 0.1 mM MgCl2−pH=6.5) to reach a final concentration of 100 mmol/l sucrose (200 μl final volume). For the control, the same reaction was carried out, where ethanol:DMSO (final concentration of 7.5% and 1.25%, v/v) or ethanol (final concentration of 5%, v/v) replaced the test agent solutions. The samples were incubated 37° C. with rocking for 4 h. After incubation, ice-cold ethanol (1.0 ml) was added and the samples were stored for 18 h, 4° C. for precipitation of glucans. Radiolabeled glucan was determined by scintillation counting (Germaine et al., 1974; Venkitaraman et al., 1995).

[6] = molecular target: T1, GTF B; test: GTF activity adsorbed onto saliva-coated hydroxyapatite (sHA) surface, GTF B; assay type: biochemical; details: read-out: GTF B surf. % of Inhib.
Procedure: as §2
(§4) For surface assays, the GTFs were adsorbed to hydroxyapatite beads coated with clarified whole saliva (free of GTF activity), as detailed elsewhere (Koo et al., 2000c; Schilling and Bowen, 1988, Venkitaraman et al., 1995). The saliva-coated hydroxyapatite (sHA) beads were exposed to sufficient enzyme to saturate the surface as determined experimentally. Following the adsorption of the enzyme, the beads were washed 3 times with buffer to remove the loosely bound material and exposed to 300 μl of the two-fold dilution series of test compounds (or control) for 30 min. at the same concentrations described above. The beads were washed and exposed to 300 μl [^14C-glucose]-sucrose substrate (100.0 mmol/l sucrose, final concentration). The radiolabeled glucan formed was collected and quantified by scintillation counting (Germaine et al., 1974; Venkitaraman et al., 1995). All the solution and surface assays were done in quadruplicate in at least 3 different experiments.

[7] = molecular target: T2, GTF C (Streptococcus mutans serotype c, UniProt P13470); test: GTF activity in solution, GTF C; assay type: biochemical; details: read-out: GTF C sol. % of Inhib.
T2 construct: The supernatant was carefully collected as the source of GTF C; made in house; host or cells: Streptococcus mutans WHB 410 (endogenous gtfC; urea/Triton extract of washed cells, hydroxyapatite chromatography)
Procedure: as §2, §3

[8] = molecular target: T2, GTF C; test: GTF activity adsorbed onto sHA surface, GTF C; assay type: biochemical; details: read-out: GTF C surf. % of Inhib.
Procedure: as §2, §4

[9] = molecular target: T3, GTF D (Streptococcus mutans serotype c, UniProt P49331); test: GTF activity in solution, GTF D; assay type: biochemical; details: read-out: GTF D sol. % of Inhib.
T3 construct: made in house; host or cells: Streptococcus milleri NH5 (culture supernatant)
Procedure: as §2, §3

[10] = molecular target: T3, GTF D; test: GTF activity adsorbed onto sHA surface, GTF D; assay type: biochemical; details: read-out: GTF D surf. % of Inhib.
Procedure: as §2, §4

[11] = molecular target: T4, GTF Ss (Streptococcus sanguinis, UniProt A3CLJ9); test: GTF activity in solution, GTF Ss; assay type: biochemical, S. sanguinis; details: read-out: GTF Ss sol. % of Inhib.
Procedure: as §2, §3

[12] = molecular target: T4, GTF Ss; test: GTF activity adsorbed onto sHA surface, GTF Ss; assay type: biochemical, S. sanguinis; details: read-out: GTF Ss surf. % of Inhib.
Procedure: as §2, §4

[13] = Streptococcus mutans, all strains tested (S. mutans GS-5, UA159, S. sobrinus 6715), read-out: MIC

T2 sequence (P13470 35-1455): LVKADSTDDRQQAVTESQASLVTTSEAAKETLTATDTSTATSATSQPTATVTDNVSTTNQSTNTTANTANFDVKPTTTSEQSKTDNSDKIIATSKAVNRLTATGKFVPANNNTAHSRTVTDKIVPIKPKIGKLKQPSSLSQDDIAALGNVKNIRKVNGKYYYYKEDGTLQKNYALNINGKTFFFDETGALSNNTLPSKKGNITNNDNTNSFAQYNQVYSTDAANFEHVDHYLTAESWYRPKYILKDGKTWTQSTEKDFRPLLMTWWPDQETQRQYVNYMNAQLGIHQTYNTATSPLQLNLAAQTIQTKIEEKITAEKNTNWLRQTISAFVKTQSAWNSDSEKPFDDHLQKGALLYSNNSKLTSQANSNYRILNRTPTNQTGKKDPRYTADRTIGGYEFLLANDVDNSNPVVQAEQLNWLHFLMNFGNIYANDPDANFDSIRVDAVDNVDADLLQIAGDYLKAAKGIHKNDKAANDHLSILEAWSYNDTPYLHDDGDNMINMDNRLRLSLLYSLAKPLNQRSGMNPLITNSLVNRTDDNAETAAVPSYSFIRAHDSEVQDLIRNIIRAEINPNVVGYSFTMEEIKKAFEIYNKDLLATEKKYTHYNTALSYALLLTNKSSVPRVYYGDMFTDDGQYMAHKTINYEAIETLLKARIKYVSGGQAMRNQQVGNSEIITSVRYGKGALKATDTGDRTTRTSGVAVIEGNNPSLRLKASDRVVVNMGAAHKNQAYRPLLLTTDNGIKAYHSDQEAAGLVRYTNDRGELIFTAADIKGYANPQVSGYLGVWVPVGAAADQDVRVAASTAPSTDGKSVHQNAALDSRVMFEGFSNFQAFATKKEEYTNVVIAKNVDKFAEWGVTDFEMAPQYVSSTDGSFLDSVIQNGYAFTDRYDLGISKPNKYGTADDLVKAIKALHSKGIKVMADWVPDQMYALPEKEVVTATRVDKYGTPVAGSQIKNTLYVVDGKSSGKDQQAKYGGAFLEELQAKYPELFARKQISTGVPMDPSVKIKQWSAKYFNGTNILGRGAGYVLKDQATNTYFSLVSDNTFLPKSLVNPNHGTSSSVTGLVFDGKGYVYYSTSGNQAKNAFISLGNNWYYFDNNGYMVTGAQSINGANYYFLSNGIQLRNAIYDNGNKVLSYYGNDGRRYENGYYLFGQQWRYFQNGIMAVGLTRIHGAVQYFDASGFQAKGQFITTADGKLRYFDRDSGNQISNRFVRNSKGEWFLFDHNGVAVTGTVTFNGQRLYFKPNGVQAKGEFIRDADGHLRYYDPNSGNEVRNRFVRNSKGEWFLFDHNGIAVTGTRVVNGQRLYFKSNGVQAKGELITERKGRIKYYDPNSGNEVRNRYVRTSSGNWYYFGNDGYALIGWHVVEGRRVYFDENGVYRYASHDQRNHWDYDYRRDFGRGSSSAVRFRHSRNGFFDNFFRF
T3 sequence (P49331 whole entry): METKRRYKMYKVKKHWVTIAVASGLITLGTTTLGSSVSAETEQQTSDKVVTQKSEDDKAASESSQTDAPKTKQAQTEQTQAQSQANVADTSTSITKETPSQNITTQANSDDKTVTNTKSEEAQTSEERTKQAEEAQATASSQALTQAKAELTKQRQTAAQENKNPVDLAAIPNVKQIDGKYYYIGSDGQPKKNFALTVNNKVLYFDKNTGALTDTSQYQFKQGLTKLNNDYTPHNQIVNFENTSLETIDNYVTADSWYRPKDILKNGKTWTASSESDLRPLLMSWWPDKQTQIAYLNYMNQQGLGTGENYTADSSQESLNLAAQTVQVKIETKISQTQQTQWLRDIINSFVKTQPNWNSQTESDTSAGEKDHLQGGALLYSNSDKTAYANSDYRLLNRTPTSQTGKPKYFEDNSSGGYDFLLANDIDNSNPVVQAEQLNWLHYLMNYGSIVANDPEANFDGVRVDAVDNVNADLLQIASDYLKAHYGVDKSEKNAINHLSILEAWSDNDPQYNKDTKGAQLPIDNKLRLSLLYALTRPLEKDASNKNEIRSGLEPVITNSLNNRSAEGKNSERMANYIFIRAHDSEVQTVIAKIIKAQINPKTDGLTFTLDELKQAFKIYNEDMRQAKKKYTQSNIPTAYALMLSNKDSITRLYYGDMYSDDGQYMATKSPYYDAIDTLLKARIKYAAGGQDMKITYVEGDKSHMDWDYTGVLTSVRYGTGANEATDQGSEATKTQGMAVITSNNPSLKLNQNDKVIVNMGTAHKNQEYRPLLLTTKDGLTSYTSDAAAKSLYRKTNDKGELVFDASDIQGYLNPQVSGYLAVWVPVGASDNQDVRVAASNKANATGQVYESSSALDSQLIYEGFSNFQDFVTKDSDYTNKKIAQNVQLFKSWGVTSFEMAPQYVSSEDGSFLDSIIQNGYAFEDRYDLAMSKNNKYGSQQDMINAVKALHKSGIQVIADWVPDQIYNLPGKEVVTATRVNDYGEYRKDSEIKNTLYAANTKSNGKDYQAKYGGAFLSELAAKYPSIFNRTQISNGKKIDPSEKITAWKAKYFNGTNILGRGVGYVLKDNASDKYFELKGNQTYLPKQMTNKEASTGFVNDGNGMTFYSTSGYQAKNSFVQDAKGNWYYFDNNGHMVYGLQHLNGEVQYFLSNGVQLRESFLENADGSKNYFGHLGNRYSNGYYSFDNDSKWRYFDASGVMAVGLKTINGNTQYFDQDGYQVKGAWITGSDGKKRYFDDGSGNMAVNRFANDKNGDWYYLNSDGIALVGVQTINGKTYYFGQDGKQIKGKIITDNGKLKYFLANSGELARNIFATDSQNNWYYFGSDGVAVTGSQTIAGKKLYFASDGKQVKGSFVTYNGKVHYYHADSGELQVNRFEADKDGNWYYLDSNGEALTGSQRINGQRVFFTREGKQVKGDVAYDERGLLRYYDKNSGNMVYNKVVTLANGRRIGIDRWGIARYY
T1 sequence (P08987 35-1476): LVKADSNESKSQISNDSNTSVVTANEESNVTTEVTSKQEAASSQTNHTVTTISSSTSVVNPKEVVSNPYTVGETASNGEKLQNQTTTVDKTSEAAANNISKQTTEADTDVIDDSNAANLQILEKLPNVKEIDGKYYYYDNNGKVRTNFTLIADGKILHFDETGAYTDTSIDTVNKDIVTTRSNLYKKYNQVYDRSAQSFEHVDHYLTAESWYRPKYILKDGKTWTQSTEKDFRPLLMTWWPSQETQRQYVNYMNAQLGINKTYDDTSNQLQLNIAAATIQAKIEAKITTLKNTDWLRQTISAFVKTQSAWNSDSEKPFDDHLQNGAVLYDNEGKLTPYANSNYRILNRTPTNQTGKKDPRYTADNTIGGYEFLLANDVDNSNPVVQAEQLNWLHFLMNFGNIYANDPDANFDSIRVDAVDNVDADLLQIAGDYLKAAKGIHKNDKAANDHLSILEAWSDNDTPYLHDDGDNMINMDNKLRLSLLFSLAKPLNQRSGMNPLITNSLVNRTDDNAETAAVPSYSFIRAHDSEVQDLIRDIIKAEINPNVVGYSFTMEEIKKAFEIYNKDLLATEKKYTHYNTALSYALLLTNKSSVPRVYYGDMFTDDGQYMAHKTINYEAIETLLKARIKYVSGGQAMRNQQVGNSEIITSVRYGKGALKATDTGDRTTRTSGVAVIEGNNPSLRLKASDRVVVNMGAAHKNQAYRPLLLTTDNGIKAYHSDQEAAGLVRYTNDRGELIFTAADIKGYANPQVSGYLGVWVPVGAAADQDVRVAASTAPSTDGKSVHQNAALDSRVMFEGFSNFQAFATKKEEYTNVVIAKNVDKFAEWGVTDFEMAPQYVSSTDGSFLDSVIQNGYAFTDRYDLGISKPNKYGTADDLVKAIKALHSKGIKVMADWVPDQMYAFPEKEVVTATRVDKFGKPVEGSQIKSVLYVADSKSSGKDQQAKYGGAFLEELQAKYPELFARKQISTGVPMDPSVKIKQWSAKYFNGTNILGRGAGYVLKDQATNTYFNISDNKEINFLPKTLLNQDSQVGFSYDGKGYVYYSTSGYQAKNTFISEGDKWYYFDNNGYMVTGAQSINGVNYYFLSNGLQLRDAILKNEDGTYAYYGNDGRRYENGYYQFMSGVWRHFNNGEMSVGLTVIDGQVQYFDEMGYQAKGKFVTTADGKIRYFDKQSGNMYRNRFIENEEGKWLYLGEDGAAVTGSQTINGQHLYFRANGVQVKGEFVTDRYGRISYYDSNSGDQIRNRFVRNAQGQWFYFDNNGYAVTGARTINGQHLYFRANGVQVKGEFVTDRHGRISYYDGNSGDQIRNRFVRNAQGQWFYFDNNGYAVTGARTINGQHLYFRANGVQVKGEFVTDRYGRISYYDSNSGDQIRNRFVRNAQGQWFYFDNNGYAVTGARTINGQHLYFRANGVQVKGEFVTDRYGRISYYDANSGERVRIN

Question: How did the MBC [1] turn out when O=c1cc(-c2ccccc2)oc2cc(O)c(O)c(O)c12 [Baicalein] was run?
Answer: >500 µM

Question: What about the MIC [1] of the same compound?
Answer: 500 µM (≈ 135 µg/mL)

Question: What about the MBC [2] of the same compound?
Answer: >500 µM

Question: And the MIC [2]?
Answer: 500 µM (≈ 135 µg/mL)

Question: What about the MBC [3] of the same compound?
Answer: >500 µM

Question: And the MIC [3]?
Answer: 500 µM (≈ 135 µg/mL)

Question: And the MIC ([4]; all strains tested (S. mutans GS-5, UA159, S. sobrinus 6715), read-out: MIC)?
Answer: 500 µM (≈ 135 µg/mL)

Question: For O=C(O)c1ccccc1 [Benzoic acid], which MIC ([4]; Streptococcus mutans) is on record?
Answer: > 500 µM

Question: Which MIC [4, 13] does the source give for O=C(O)/C=C/c1ccc(O)c(O)c1 [Caffeic acid] here?
Answer: > 500 µM

Question: COc1cc(/C=C/C(=O)O)ccc1O [Ferulic acid] was tested. Which MIC [4, 13] did it give?
Answer: > 500 µM

Question: For O=c1c(O)c(-c2ccc(O)cc2)oc2cc(O)cc(O)c12 [Kaempferol], which inhibition at 125 µM [5] is on record?
Answer: 32.4%

Question: What about the inhibition at 250 µM [5] of the same compound?
Answer: 80.6%

Question: What about the inhibition at 500 µM [5] of the same compound?
Answer: 90.4%

Question: And the inhibition at 125 µM [6]?
Answer: 9.9%

Question: What about the inhibition at 250 µM [6] of the same compound?
Answer: 27.8%

Question: And the inhibition at 500 µM [6]?
Answer: 40.2%

Question: And the inhibition at 125 µM [7]?
Answer: 41.9%

Question: What about the inhibition at 250 µM [7] of the same compound?
Answer: 82.2%

Question: What about the inhibition at 500 µM [7] of the same compound?
Answer: 90.2%

Question: What about the inhibition at 125 µM [8] of the same compound?
Answer: 24.2%

Question: And the inhibition at 250 µM [8]?
Answer: 25.8%

Question: What about the inhibition at 500 µM [8] of the same compound?
Answer: 35.2%

Question: And the inhibition at 125 µM [9]?
Answer: 39.1%

Question: And the inhibition at 250 µM [9]?
Answer: 76.7%

Question: What about the inhibition at 500 µM [9] of the same compound?
Answer: 86.7%

Question: And the inhibition at 125 µM [10]?
Answer: 20.4%

Question: What about the inhibition at 250 µM [10] of the same compound?
Answer: 23.5%

Question: What about the inhibition at 500 µM [10] of the same compound?
Answer: 28.5%

Question: And the inhibition at 125 µM [11]?
Answer: 37.6%

Question: What about the inhibition at 250 µM [11] of the same compound?
Answer: 43.1%

Question: What about the inhibition at 500 µM [11] of the same compound?
Answer: 88.9%

Question: And the inhibition at 125 µM [12]?
Answer: 9.7%

Question: And the inhibition at 250 µM [12]?
Answer: 8.8%

Question: And the inhibition at 500 µM [12]?
Answer: 19.2%

Question: What about the MIC ([4]; Streptococcus mutans) of the same compound?
Answer: > 500 µM

Question: With O=c1cc(-c2ccc(O)c(O)c2)oc2cc(O)cc(O)c12 [Luteolin] as the compound, how does the MIC [4, 13] read?
Answer: > 500 µM
